{"source": "paper doi:10.1101/252742v1", "about": "(bioRxiv, 2018)", "key": {"[1]": {"experiment": "Stability of peptide incubated in human plasma", "type": "in vitro ADME", "conditions": "incubated in PBS or human plasma for up to 72h at 37°C, then tested for activity"}, "[2]": {"tested_on": "Chk1, Chk2, H2AX", "experiment": "DNA damage response effector activation by western blot", "type": "cell-based, human", "conditions": "UM-SCC47 or MDA-MB-231 cells, 30 μM peptide up to 6 hr"}, "[3]": {"tested_on": "normal oral keratinocytes (NOKs), human tonsillar epithelial cells (HTEs), HaCaT keratinocytes and MCF10A cells", "experiment": "Cell proliferation assay", "type": "cell-based", "conditions": "0, 3, 10 or 30 μM peptide, four-day treatment; cell number as % of untreated"}, "[4]": {"tested_on": "NOKs and MCF10A cells", "experiment": "DNA synthesis by EdU incorporation, non-tumorigenic cells", "type": "cell-based, human", "conditions": "30 μM peptide for 1, 3 or 6 hr (up to 16 hr), then EdU 45 min"}, "[5]": {"tested_on": "UM-SCC47 cells", "type": "cell-based, human", "conditions": "UM-SCC47, 30 μM peptide for 3 hr, EdU for the last 45 min"}, "[6]": {"tested_on": "HaCaT keratinocytes", "experiment": "Cell cycle analysis by flow cytometry", "type": "cell-based, human", "conditions": "30 uM peptide, 16 hr"}, "[7]": {"tested_on": "c-Abl", "experiment": "c-Abl activity", "type": "cell-based, human", "conditions": "UM-SCC47, 30 μM peptide for 3 hr"}, "[8]": {"tested_on": "UM-SCC47 cells", "experiment": "Cell cycle analysis by flow cytometry", "type": "cell-based, human", "conditions": "UM-SCC47, 30 uM peptide"}, "[9]": {"tested_on": "PCNA", "experiment": "DNA-bound PCNA staining on chromatin", "type": "cell-based, human", "conditions": "UM-SCC47, detergent-extracted after 3 hr treatment with 30 μM peptide"}, "[10]": {"experiment": "Plasma pharmacokinetics in mice", "type": "in vivo", "conditions": "single intravenous (i.v.) injection of 0.597 mg/kg"}, "[11]": {"tested_on": "p38MAPK", "experiment": "p38MAPK activation", "type": "cell-based, human", "conditions": "NOKs, 30 μM peptide, 15 min to 16 hr"}}, "data": [{"sequence": "SSTNEGFR", "values": [{"measurement": "stability in human plasma", "setting": "[1]", "result": "remarkably stable"}, {"measurement": "activation of DNA damage response effectors (Chk1, Chk2, γH2AX)", "setting": "[2]", "result": "fails to activate Chk1 or Chk2"}, {"measurement": "growth of non-tumorigenic cells", "setting": "[3]", "result": "not affected"}, {"measurement": "DNA synthesis (EdU incorporation)", "setting": "[4]", "result": "no inhibition of DNA synthesis"}, {"measurement": "EdU incorporation", "setting": "[5]", "result": "near complete loss of EdU incorporation"}, {"measurement": "cells in G1", "setting": "[6]", "result": 36.6, "unit": "%"}, {"measurement": "cells in S", "setting": "[6]", "result": 57.0, "unit": "%"}, {"measurement": "c-Abl activity (pY245, pY412)", "setting": "[7]", "result": "inactivates c-Abl"}, {"measurement": "cells in G1", "setting": "[8]; 3 hr", "result": 53.1, "unit": "%"}, {"measurement": "cells in G2", "setting": "[8]; 3 hr", "result": 0.0, "unit": "%"}, {"measurement": "cells in S", "setting": "[8]; 3 hr", "result": 46.9, "unit": "%"}, {"measurement": "cells in G1", "setting": "[8]; 16 hr", "result": 48.5, "unit": "%"}, {"measurement": "cells in G2", "setting": "[8]; 16 hr", "result": 1.7, "unit": "%"}, {"measurement": "cells in S", "setting": "[8]; 16 hr", "result": 49.8, "unit": "%"}, {"measurement": "PCNA retention on chromatin", "setting": "[9]", "result": "loss of PCNA"}, {"measurement": "half-life in plasma", "setting": "[10]", "result": "~ 42 hr"}, {"measurement": "p38MAPK activation in non-transformed cells", "setting": "[11]", "result": "fail to activate p38MAPK"}]}]}
